Assay results: US20250215039A1, “NUCLEOSIDES FOR TREATING CANCER” (PRIMEFOUR THERAPEUTICS, INC., priority 2022, published 2025)
Like-named read-outs stand apart in the source and are kept apart here.

System: cancer cell lines
Assay: Cancer cell proliferation activity (CellTiterGlo, 72 h)
Assay type: cell-based
Details: 72 h, 72 h, read-out: IC50 cell proliferation
Outline: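 Readout is CellTiterGlo luminescence after 72 h compound exposure (0.1% DMSO final), started one day post-seeding, at 37 °C.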

CCC[C@]1(CO)O[C@@H](n2cnc3c(N)nc(F)nc32)[C@H](O)[C@@H]1O [compound 195, (2R,3S,4R,5R)-5-(6-amino-2-fluoro-9H-purin-9-yl)-2-(hydroxymethyl)-2-propyltetrahydrofuran-3,4-diol]
IC50 (5637 (bladder)): 230 nM | IC50 (CLS439 (bladder)): 400 nM | IC50 (HS729 (muscle)): 150 nM | IC50 (J82 (bladder)): 160 nM | IC50 (JAR (placenta)): 100 nM | IC50 (MT3 (breast)): 120 nM | IC50 (PANCI (pancreas)): 2250 nM | IC50 (PC3 (prostate)): 220 nM | IC50 (RD (muscle)): 210 nM | IC50 (T24 (bladder)): 300 nM | IC50 (Homo sapiens, 22Rv1, 72 h, 22RV1 (prostate)): 540 nM | IC50 (Homo sapiens, 786-0, 72 h, 786O (kidney)): 110 nM | IC50 (Homo sapiens, A204, 72 h, A204 (muscle)): 140 nM | IC50 (Homo sapiens, A549, 72 h, A549 (lung)): 60 nM | IC50 (Homo sapiens, A673, 72 h, A673 (bone)): 700 nM | IC50 (Homo sapiens, A2780, 72 h, A2780 (ovary)): 390 nM | IC50 (Homo sapiens, A-375, 72 h, A375 (skin)): 110 nM | IC50 (Homo sapiens, A-431, 72 h, A431 (skin)): 70 nM | IC50 (Homo sapiens, ACHN, ACHN (kidney)): 90 nM | IC50 (Homo sapiens, ASPC1, 72 h, ASPC1 (pancreas)): 130 nM | IC50 (Homo sapiens, BT-20, 72 h, BT20 (breast)): 110 nM | IC50 (Homo sapiens, BXPC-3, 72 h, BXPC3 (pancreas)): 80 nM | IC50 (Homo sapiens, C-33-A, C33A (endometrial)): 380 nM | IC50 (Homo sapiens, CAKI-1, 72 h, CAKI1 (kidney)): 20 nM | IC50 (Homo sapiens, COLO 205, 72 h, COLO205 (colon)): 330 nM | IC50 (Homo sapiens, COLO-678, 72 h, COLO678 (colon)): 100 nM | IC50 (Homo sapiens, Ca-Ski, CASKI (endometrial)): 50 nM | IC50 (Homo sapiens, Caco-2, 72 h, CACO2 (colon)): 280 nM | IC50 (Homo sapiens, Calu-6, 72 h, CALU6 (lung)): 40 nM | IC50 (Homo sapiens, DLD-1, 72 h, DLD1 (colon)): 510 nM | IC50 (Homo sapiens, DU-145, 72 h, DU145 (prostate)): 30 nM | IC50 (Homo sapiens, EFO-21, 72 h, EFO21 (ovary)): 150 nM | IC50 (Homo sapiens, EJ-28, 72 h, EJ28 (bladder)): 140 nM | IC50 (Homo sapiens, Granta-519, 72 h, GRANTA-519 (hematological)): 160 nM | IC50 (Homo sapiens, HCT-15, 72 h, HCT15 (colon)): 290 nM | IC50 (Homo sapiens, HCT-116, 72 h, HCT116 (colon)): 250 nM | IC50 (Homo sapiens, HEK293, 72 h, HEK293 (kidney)): 200 nM | IC50 (Homo sapiens, HL-60, 72 h, HL-60 (hematological)): 100 nM | IC50 (Homo sapiens, HT-29, 72 h, HT29 (colon)): 260 nM | IC50 (Homo sapiens, HT-1080, 72 h, HT1080 (connective tissue)): 270 nM | IC50 (Homo sapiens, HeLa, HELA (endometrial)): 80 nM | IC50 (Homo sapiens, HepG2, 72 h, HEPG2 (liver)): 170 nM | IC50 (Homo sapiens, Hs-578T, HS578T (breast)): 60 nM | IC50 (Homo sapiens, IGROV-1, 72 h, IGROV1 (ovary)): 80 nM | IC50 (Homo sapiens, IMR-90, 72 h, IMR90 (lung)): 60 nM | IC50 (Homo sapiens, JEG-3, 72 h, JEG3 (placenta)): 100 nM | IC50 (Homo sapiens, JIMT-1, 72 h, JIMT1 (breast)): 30 nM | IC50 (Homo sapiens, K562, 72 h, K-562 (hematological)): 530 nM | IC50 (Homo sapiens, Kasumi 1, 72 h, KASUMI-1 (hematological)): 20 nM | IC50 (Homo sapiens, L-363, 72 h, L-363 (hematological)): 90 nM | IC50 (Homo sapiens, LoVo, LOVO (colon)): 30 nM | IC50 (Homo sapiens, MCF7, 72 h, MCF7 (breast)): 390 nM | IC50 (Homo sapiens, MDA-MB-231, 72 h, MDAMB231 (breast)): 240 nM | IC50 (Homo sapiens, MDA-MB-435, 72 h, MDAMB435 (skin)): 320 nM | IC50 (Homo sapiens, MDA-MB-436, 72 h, MDAMB436 (breast)): 80 nM | IC50 (Homo sapiens, MDA-MB-468, 72 h, MDAMB468 (breast)): 70 nM | IC50 (Homo sapiens, MG-63, 72 h, MG63 (bone)): 1730 nM | IC50 (Homo sapiens, MHH-ES-1, 72 h, MHHES1 (bone)): 170 nM | IC50 (Homo sapiens, MIA PaCa-2, 72 h, MIAPACA2 (pancreas)): 1750 nM | IC50 (Homo sapiens, MINO, MINO (hematological)): 20 nM | IC50 (Homo sapiens, MV4-11, 72 h, MV4-11 (hematological)): 20 nM | IC50 (Homo sapiens, NCI-H23, 72 h, NCI-H23 (lung)): 220 nM | IC50 (Homo sapiens, NCI-H82, 72 h, NCIH82 (lung)): 170 nM | IC50 (Homo sapiens, NCI-H292, 72 h, NCIH292 (lung)): 150 nM | IC50 (Homo sapiens, NCI-H460, 72 h, NCIH460 (lung)): 170 nM | IC50 (Homo sapiens, OVCAR-3, 72 h, OVCAR3 (ovary)): 80 nM | IC50 (Homo sapiens, OVCAR-4, 72 h, OVCAR4 (ovary)): 150 nM | IC50 (Homo sapiens, PLC-PRF-5, 72 h, PLCPRF5 (liver)): 1040 nM | IC50 (Homo sapiens, Panc1005, 72 h, PANC1005 (pancreas)): 180 nM | IC50 (Homo sapiens, Ramos, RAMOS (hematological)): 140 nM | IC50 (Homo sapiens, SAOS-2, 72 h, SAOS2 (bone)): 100 nM | IC50 (Homo sapiens, SF-268, 72 h, SF268 (brain)): 300 nM | IC50 (Homo sapiens, SF-295, 72 h, SF295 (brain)): 220 nM | IC50 (Homo sapiens, SK-BR-3, 72 h, SKBR3 (breast)): 30 nM | IC50 (Homo sapiens, SK-HEP1, 72 h, SKHEP1 (liver)): 60 nM | IC50 (Homo sapiens, SK-LMS-1, 72 h, SKLMS1 (uterus)): 140 nM | IC50 (Homo sapiens, SK-MEL-5, 72 h, SKMEL5 (skin; SKMELS [sic] in Table 9E)): 90 nM | IC50 (Homo sapiens, SK-MEL-28, 72 h, SKMEL28 (skin)): 100 nM | IC50 (Homo sapiens, SK-N-AS, SKNAS (brain)): 120 nM | IC50 (Homo sapiens, SK-N-SH, SKNSH (brain)): 80 nM | IC50 (Homo sapiens, SK-OV-3, 72 h, SKOV3 (ovary)): 90 nM | IC50 (Homo sapiens, SNB-75, 72 h, SNB75 (brain)): 220 nM | IC50 (Homo sapiens, SU-DHL10, 72 h, SU-DHL-10 (hematological)): 210 nM | IC50 (Homo sapiens, SU-DHL-6, 72 h, SU-DHL-6 (hematological)): 60 nM | IC50 (Homo sapiens, SW-620, 72 h, SW620 (colon)): 80 nM | IC50 (Homo sapiens, TE-671, 72 h, TE671 (muscle)): 730 nM | IC50 (Homo sapiens, THP-1, 72 h, THP-1 (hematological)): 200 nM | IC50 (Homo sapiens, U2OS, U20S (bone; U2OS in Table 9E)): 70 nM | IC50 (Homo sapiens, U-87 MG, U87MG (brain)): 150 nM | IC50 (Homo sapiens, UMUC3, 72 h, UMUC3 (bladder)): 190 nM | IC50 (Homo sapiens, UO-31, 72 h, UO31 (kidney)): 50 nM | IC50 (Homo sapiens, WSU-NHL, WSU-NHL (hematological)): 40 nM | IC50 (NCI-H358M, NCIH358M (lung)): 140 nM | IC50 (PBMC, PBMC (hematological)): 20 nM | IC50 (RD-ES, RDES (bone)): 40 nM
